We go through 67 compounds from patent US12404268B2, “2-heteroaryl aminoquinazolinone derivative” (Sumitomo Pharma Co., Ltd., priority 2020, dated 2025).

Molecules are shown by their SMILES. Bounds are passed on as bounds.

The test system of the test is neurons induced to differentiate from SCN1A gene deficient human iPS cells. Description: Test for measuring hyperexcitation suppression activity (spontaneous calcium oscillation frequency). It is filed as cell-based. The following applies: Neuron; for inhibition at 10 µM / inhibition at 1 µM / inhibition at 100 µM: Homo sapiens, read-out: inhibition rate; for IC50: SCN1A gene deficient human iPS cell-derived neurons, FLIPR Calcium 6, FDSS7000EX, read-out: IC50 (50% inhibitory concentration, frequency of spontaneous calcium oscillation). The text has this: Test for Measuring Hyperexcitation Suppression Activity Using Neurons Induced to Differentiate from SCN1A Gene Deficient Human iPS Cells
(1) Induction of Differentiation from Human iPS cells to Neurons
Half of the culture solution was exchanged once every 3 to 4 days.
(2) Fluorescent Calcium Probe Treatment, Addition of Compound, and Evaluation of Intracellular Calcium Concentration
Half of the culture solution was removed on day 60 from induction of differentiation or thereafter. A medium for measurement comprising a fluorescent calcium probe (Molecular Device, product name: FLIPR Calcium 6 Assay Bulk Kit, cat #R8191) was added at an amount equal to the remaining medium. The culture was left standing for 30 minutes and subjected to measurement.
The test compounds were serially diluted with a dimethyl sulfoxide (DMSO) solution so that the final concentration would be 0.1 to 100 μM to prepare a concentrate with a concentration that is 6-fold of the final concentration.
The intensity of fluorescence of a calcium probe was measured over time with FDSS7000EX (Hamamatsu Photonics) to evaluate the change in intracellular calcium concentrations. First, the intensity of fluorescence was measured for 2 minutes. The compound solutions were then added using FDSS7000EX for an additional 8 minute measurement of fluorescence intensity. The frequency of spontaneous calcium oscillation was quantified as an indicator of nerve excitation. With the frequency for 2 minutes before the addition of the compound solutions as 100%, the ratio of frequency for the last 2 minutes after addition of the compound solutions was calculated.

As for `O=c1c2cc(F)ccc2nc(Nc2ncccc2F)n1-c1ccccc1` [Example 126], the inhibition at 10 µM came out at 80%.
For `O=c1c2cc(F)ccc2nc(Nc2cc(F)ccn2)n1-c1ccccc1` [Example 127, 6-fluoro-2-((4-fluoropyridin-2-yl)amino)-3-phenylquinazolin-4(3H)-one], the inhibition at 1 µM was determined as 96%.
On the same count and under the same terms, to `O=c1c2cc(F)ccc2nc(Nc2ccc(F)cn2)n1-c1ccccc1` [Example 128] belongs 69%; to `O=c1c2cc(F)ccc2nc(Nc2cccc(F)n2)n1-c1ccccc1` [Example 129], 50%; to `COc1cccc(Nc2nc3ccc(F)cc3c(=O)n2-c2ccccc2)n1` [Example 130], 44%.
For `O=c1c2cc(F)ccc2nc(Nc2ccncc2)n1-c1ccccc1` [Example 131], the inhibition at 10 µM is 100%.
As for `Cc1cnccc1Nc1nc2ccc(F)cc2c(=O)n1-c1ccccc1` [Example 132], the inhibition at 1 µM stood at 38%.
Same read-out and setting: to `COc1cccc(-n2c(Nc3cccnc3)nc3ccc(F)cc3c2=O)c1` [Example 133] belongs 51%; to `O=c1c2cc(F)ccc2nc(Nc2cccnc2)n1-c1cccc(Cl)c1` [Example 134], 56%; to `O=c1c2cc(F)ccc2nc(Nc2cccnc2)n1-c1ccc(Cl)cc1` [Example 135], 24%.
With `Cc1cccnc1Nc1nc2ccc(F)cc2c(=O)n1-c1ccccc1` [Example 136], the inhibition at 100 µM is 5%.
For the compound `Cc1ccc(Nc2nc3ccc(F)cc3c(=O)n2-c2ccccc2)nc1` [Example 137, 6-fluoro-2-((5-methylpyridin-2-yl)amino)-3-phenylquinazolin-4(3H)-one], the inhibition at 1 µM was 85%.
Same read-out and setting: to `Cc1cccc(Nc2nc3ccc(F)cc3c(=O)n2-c2ccccc2)n1` [Example 138] belongs 70%.
On to `Cc1cc(Nc2nc3ccc(F)cc3c(=O)n2-c2ccccc2)ccn1` [Example 139], for which the inhibition at 10 µM worked out at 100%.
Turning to `O=c1c2cc(F)ccc2nc(Nc2ccncc2F)n1-c1ccccc1` [Example 140], the inhibition at 1 µM was 46%.
On the same count and under the same terms, to `O=c1c2cc(F)ccc2nc(Nc2ccnc(F)c2)n1-c1ccccc1` [Example 141, 6-fluoro-2-((2-fluoropyridin-4-yl)amino)-3-phenylquinazolin-4(3H)-one] belongs 97%; to `COc1ccccc1-n1c(Nc2cccnc2)nc2ccc(F)cc2c1=O` [Example 142, 6-fluoro-3-(2-methoxyphenyl)-2-(pyridin-3-ylamino)quinazolin-4(3H)-one], 86%.
The same measure, in the same setting: the figure for `COc1ccc(-n2c(Nc3cccnc3)nc3ccc(F)cc3c2=O)cc1` [Example 143] is 45%.
As for `COc1cnccc1Nc1nc2ccc(F)cc2c(=O)n1-c1ccccc1` [Example 144], the inhibition at 100 µM came out at 16%.
Take `O=c1c2cc(F)ccc2nc(Nc2cccnc2)n1-c1ccccc1Cl` [Example 145, 3-(2-chlorophenyl)-6-fluoro-2-(pyridin-3-ylamino)quinazolin-4(3H)-one]: the inhibition at 1 µM is 100%.
For the compound `O=c1c2cc(Cl)ccc2nc(Nc2ccncn2)n1-c1ccccc1` [Example 146], the inhibition at 10 µM is 11%.
Take `Cc1ccncc1Nc1nc2ccc(Cl)cc2c(=O)n1-c1ccccc1` [Example 147]: the IC50 is 2.7 µM.
For `O=c1c2ccccc2nc(Nc2ccc3oncc3c2)n1-c1ccccc1` [Example 148], the inhibition at 100 µM is 10%.
For the compound `COc1ccc(Nc2nc3ccc(F)cc3c(=O)n2-c2ccccc2)nc1` [Example 149], the inhibition at 10 µM was 32%.
In the case of `Cn1nccc1-n1c(Nc2cccnc2)nc2ccc(F)cc2c1=O` [Example 150], the inhibition at 1 µM is 26%.
`O=c1c2cc(F)ccc2nc(Nc2cccnc2)n1Cc1ccccc1` [Example 151]: the inhibition at 10 µM was found to be 2%.
Still for that read-out and setting: to `O=c1c2cccnc2nc(Nc2cccnc2)n1-c1ccccc1` [Example 152] belongs 15%.
On to `O=c1c2cc(F)ccc2nc(Nc2cccnc2)n1C1(c2ccccc2)CC1` [Example 153], for which the inhibition at 1 µM amounted to 99%.
With `Cc1nn(C)c(C)c1-n1c(Nc2cccnc2)nc2ccc(F)cc2c1=O` [Example 154], the inhibition at 10 µM is 98%.
Same read-out and setting: to `O=c1c2cc(F)ccc2nc(Nc2cccnc2)n1CC1CCCCC1` [Example 155] belongs 81%; to `CN1CCC(Cn2c(Nc3cccnc3)nc3ccc(F)cc3c2=O)CC1` [Example 156], 95%.
Still for that read-out and setting: to `O=c1c2cc(F)ccc2nc(Nc2cccnc2)n1Cc1ccccn1` [Example 157] belongs 90%.
Same read-out and setting: to `O=c1c2cc(F)ccc2nc(Nc2cccnc2)n1CCc1ccccc1` [Example 158] belongs 100%; to `O=c1c2cc(F)ccc2nc(Nc2cccnc2)n1CCN1CCCC1` [Example 159], 56%; to `O=c1c2cc(F)ccc2nc(Nc2cccnc2)n1-c1cncs1` [Example 160], 58%.
As to `O=c1c2cc(F)ccc2nc(Nc2cccnc2)n1-c1ccsc1` [Example 161], the inhibition at 1 µM was found to be 35%.
As for `O=c1c2cc(F)cnc2nc(Nc2cccnc2)n1-c1ccccc1` [Example 162], the inhibition at 10 µM came to 39%.
On to `C[C@@H](c1ccccc1)n1c(Nc2cccnc2)nc2ccc(F)cc2c1=O` [Example 163], for which the inhibition at 1 µM was determined as 70%.
Turning to `O=c1c2cc(F)ccc2nc(Nc2cccnc2)n1[C@H]1CCCOC1` [Example 164], the inhibition at 10 µM is 92%.
Take `O=c1c2cc(F)ccc2nc(Nc2cccnc2)n1C1CC1` [Example 165]: the inhibition at 10 µM was 100%.
The same measure, in the same setting: to `C[C@@H]1CN(C)CC[C@H]1n1c(Nc2cccnc2)nc2ccc(F)cc2c1=O` [Example 166] belongs 36%; to `Cc1ccccc1C1(n2c(Nc3cccnc3)nc3ccc(F)cc3c2=O)CC1` [Example 167], 100%.
`O=c1c2cc(F)ccc2nc(Nc2cccnc2)n1C1(c2ccccc2)COC1` [Example 168]: the inhibition at 1 µM was 58%.
With `O=c1c2cc(F)ccc2nc(Nc2ccsc2)n1-c1ccccc1` [Example 169], the inhibition at 10 µM came to 100%.
`O=c1c2cc(F)ccc2nc(Nc2cccnc2)n1C1CCN(C2CC2)CC1` [Example 170]: the inhibition at 100 µM stood at 100%.
As to `O=c1c2cc(F)ccc2nc(Nc2cccnc2)n1CCC(F)(F)F` [Example 171], the inhibition at 100 µM was determined as 100%.
The same measure, in the same setting: to `O=c1c2cc(F)ccc2nc(Nc2cnoc2)n1-c1ccccc1` [Example 172] belongs 100%; to `O=c1c2cc(F)ccc2nc(Nc2cccnc2)n1CCO` [Example 173], 6%.
`Cc1nc(Nc2nc3ccc(F)cc3c(=O)n2-c2ccccc2)cs1` [Example 174]: the inhibition at 1 µM worked out at 78%.
`O=c1c2cc(F)ccc2nc(Nc2cccnc2)n1C1(c2ccccc2)CNC1` [Example 175]: the inhibition at 10 µM was found to be 25%.
Consider `CN1CC(c2ccccc2)(n2c(Nc3cccnc3)nc3ccc(F)cc3c2=O)C1` [Example 176], for which the inhibition at 10 µM is 88%.
`Nc1ccc2nc(Nc3cccnc3)n(-c3ccccc3)c(=O)c2c1` [Example 177]: the inhibition at 100 µM is 100%.
`O=c1c2cc(F)ccc2nc(Nc2cnsc2)n1-c1ccccc1` [Example 178]: the inhibition at 10 µM was determined as 76%.
Still for that read-out and setting: to `NCCn1c(Nc2cccnc2)nc2ccc(F)cc2c1=O` [Example 179] belongs 98%.
`O=c1c2cc(F)ccc2nc(Nc2cccnc2)n1[C@H]1CC[C@H](O)CC1` [Example 180]: the inhibition at 1 µM was 35%.
The same measure, in the same setting: the figure for `CN(C)c1cccc(-n2c(Nc3cccnc3)nc3ccc(F)cc3c2=O)c1` [Example 181] is 73%.
As to `Cn1ccc(Nc2nc3ccc(F)cc3c(=O)n2-c2ccccc2)c1` [Example 182], the inhibition at 10 µM turned out to be 72%.
`CO[C@H]1CN(C)CC[C@H]1n1c(Nc2cccnc2)nc2ccc(F)cc2c1=O` [Example 183]: the inhibition at 100 µM is 13%.
Same read-out and setting: the figure for `O=c1c2cc(F)ccc2nc(Nc2cccnc2)n1-c1cncc(F)c1` [Example 184] is 54%.
Turning to `COc1cncc(-n2c(Nc3cccnc3)nc3ccc(F)cc3c2=O)c1` [Example 185], the inhibition at 10 µM is 31%.
Same read-out and setting: to `Cn1cc(Nc2nc3ccc(Cl)cc3c(=O)n2-c2ccccc2)cn1` [Example 186] belongs 100%.
As to `COc1ccnc(Nc2nc3ccc(F)cc3c(=O)n2-c2ccccc2)c1` [Example 187], the IC50 was more than 10 µM.
The same measure, in the same setting: to `COc1cccnc1Nc1nc2ccc(F)cc2c(=O)n1-c1ccccc1` [Example 188] belongs more than 10 µM; to `O=c1c2cnccc2nc(Nc2cccnc2)n1-c1ccccc1` [Example 189], more than 10 µM.
Same read-out and setting: to `O=c1c2cc(F)ncc2nc(Nc2cccnc2)n1-c1ccccc1` [Example 190] belongs more than 10 µM; to `O=c1c2ncccc2nc(Nc2cccnc2)n1-c1ccccc1` [Example 191], more than 10 µM; to `O=c1c2ccncc2nc(Nc2cccnc2)n1-c1ccccc1` [Example 192], more than 10 µM.
